This is an account of results in PMC3622683, “Purification, Gene Cloning, and Biochemical Characterization of a β-Glucosidase Capable of Hydrolyzing Sesaminol Triglucoside from Paenibacillus sp. KB0549” (PLoS ONE, 2013).

Structures are written as SMILES.

By Km is commonly meant the substrate concentration at which the rate is half of its maximum.

The assay has as its target T1, rPSTG (recombinant PSTG, STG-hydrolyzing β-glucosidase) (Paenibacillus relictisesami, UniProt D6RVX0).
T1 construct: full-length 753 aa, 83,298 Da, no signal peptide; expressed from pDEST17 in E. coli BL21-AI, HisTrap purified (tag cleavage not mentioned); likely tetramer, 310 kDa; GH3
T1 sequence (D6RVX0 1-753): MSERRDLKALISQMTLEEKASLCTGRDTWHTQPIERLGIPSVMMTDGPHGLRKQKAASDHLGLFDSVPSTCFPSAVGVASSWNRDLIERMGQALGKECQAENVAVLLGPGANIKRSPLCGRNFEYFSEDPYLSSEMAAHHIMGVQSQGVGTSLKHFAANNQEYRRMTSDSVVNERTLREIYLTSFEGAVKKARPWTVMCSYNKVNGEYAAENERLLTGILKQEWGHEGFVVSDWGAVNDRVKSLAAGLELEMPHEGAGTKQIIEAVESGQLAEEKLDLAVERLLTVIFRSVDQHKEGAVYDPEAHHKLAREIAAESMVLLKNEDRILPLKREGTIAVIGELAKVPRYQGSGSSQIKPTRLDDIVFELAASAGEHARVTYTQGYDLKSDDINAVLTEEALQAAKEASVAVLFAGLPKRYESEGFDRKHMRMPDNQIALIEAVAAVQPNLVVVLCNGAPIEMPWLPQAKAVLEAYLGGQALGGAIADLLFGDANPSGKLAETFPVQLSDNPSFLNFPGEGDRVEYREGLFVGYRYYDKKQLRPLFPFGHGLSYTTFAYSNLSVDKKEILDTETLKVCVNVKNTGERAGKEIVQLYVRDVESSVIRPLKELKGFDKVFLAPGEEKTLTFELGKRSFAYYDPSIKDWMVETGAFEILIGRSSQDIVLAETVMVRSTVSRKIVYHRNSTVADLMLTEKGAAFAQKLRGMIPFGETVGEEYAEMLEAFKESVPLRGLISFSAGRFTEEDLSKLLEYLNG
Briefly: p-nitrophenol release, absorbance at […] nm. It is filed as biochemical. Particulars: pH 7.0, 37°C, potassium phosphate.

Regarding `C[C@H]1O[C@@H](Oc2ccc([N+](=O)[O-])cc2)[C@H](O)[C@@H](O)[C@H]1O` [pNP-β-D-fucopyranoside], the Km is more than 10 mM.
